Reference: the supplement of paper PMC11208160

experiment: recombinant UMI read abundance after kanamycin selection (control-corrected) (log10(CPM+1)); higher = more efficient recombination; extreme values may be limits of the assay; sequences stand for … in AGTGCAGAGAAAATCGGCCAGTTTTCTCTGCCTGCAGTCCGCATGCCGTGGGACCCCTTGGGTTCTAACCTGTTGCCTAGATTTATGCAGCGGACTGCCTTTCTCCCAAAGTGATAAACCGG…AGGTTGGTTTCACT; site = the 11-nt donor
Procedure, shortened: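 Two replicates each of selected and unselected plating were used in this pooled Escherichia coli screen of donor and donor-binding-loop pairs for the IS621 bridge recombinase. Selection was with IPTG (0.07 mM) and kanamycin. Counts of recombinant UMIs, amplified across the donor–target junction, were converted to CPM, averaged, scaled by control-derived factors and reported as log10(CPM+1).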
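Further: IS621 bridge recombinase in Escherichia coli cells against a fixed T5 target plasmid.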

Point of comparison: “CAAGGTGCATGGACCGGTTTTCCCGGTAATCCGTATTTGAT (site CGAGGTGCTAT)”, “recombinant UMI read abundance (log10)” value 1.13. Against it:
- CAAGCGCCATGGACCGGTTTTCCCGGTAATCCGTATTTGTG (site CAACCGCCTCA) — lower, 0.0221
- CAAGCGCCATGGACCGGTTTTCCCGGTAATCCGTATTTGTG (site CAAGAGCCTCA) — lower, 0.0105
- CAAGCGCCATGGACCGGTTTTCCCGGTAATCCGTATTTGTG (site CAAGCACCTCA) — lower, 0.0231
- CAAGCGCCATGGACCGGTTTTCCCGGTAATCCGTATTTGTG (site CAAGCCCCTCA) — lower, 0.0168
- CAAGCGCCATGGACCGGTTTTCCCGGTAATCCGTATTTGTG (site CAAGCGACTCA) — lower, 0.0185
- CAAGCGCCATGGACCGGTTTTCCCGGTAATCCGTATTTGTG (site CAAGCGCCTAA) — lower, 0.00762
- CAAGCGCCATGGACCGGTTTTCCCGGTAATCCGTATTTGTG (site CAAGCGCCTCA) — lower, 0.0111
- CAAGCGCCATGGACCGGTTTTCCCGGTAATCCGTATTTGTG (site CAAGCGCCTCC) — lower, 0.0342
- CAAGCGCCATGGACCGGTTTTCCCGGTAATCCGTATTTGTG (site CAAGCGCCTCG) — higher, 1.36
- CAAGCGCCATGGACCGGTTTTCCCGGTAATCCGTATTTGTG (site CAAGCGCCTCT) — lower, 0.218
- CAAGCGCCATGGACCGGTTTTCCCGGTAATCCGTATTTGTG (site CAAGCGCCTGA) — lower, 0.706
- CAAGCGCCATGGACCGGTTTTCCCGGTAATCCGTATTTGTG (site CAAGCGCCTTA) — lower, 0.627
- CAAGCGCCATGGACCGGTTTTCCCGGTAATCCGTATTTGTG (site CAAGCGGCTCA) — lower, 0.00842
- CAAGCGCCATGGACCGGTTTTCCCGGTAATCCGTATTTGTG (site CAAGCGTCTCA) — higher, 1.85
- CAAGCGCCATGGACCGGTTTTCCCGGTAATCCGTATTTGTG (site CAAGCTCCTCA) — lower, 0.185
- CAAGCGCCATGGACCGGTTTTCCCGGTAATCCGTATTTGTG (site CAAGGGCCTCA) — lower, 0.0216
- CAAGCGCCATGGACCGGTTTTCCCGGTAATCCGTATTTGTG (site CAAGTGCCTCA) — lower, 0.0157
- CAAGCGCCATGGACCGGTTTTCCCGGTAATCCGTATTTGTG (site CAATCGCCTCA) — lower, 0.0117
- CAAGCGCCATGGACCGGTTTTCCCGGTAATCCGTATTTGTG (site CACGCGCCTCA) — lower, 0.0238
- CAAGCGCCATGGACCGGTTTTCCCGGTAATCCGTATTTGTG (site CAGGCGCCTCA) — lower, 0.0473
- CAAGCGCCATGGACCGGTTTTCCCGGTAATCCGTATTTGTG (site CATGCGCCTCA) — lower, 0.047
- CAAGCGCCATGGACCGGTTTTCCCGGTAATCCGTATTTGTG (site CCAGCGCCTCA) — lower, 0.00697
- CAAGCGCCATGGACCGGTTTTCCCGGTAATCCGTATTTGTG (site CGAGCGCCTCA) — lower, 0.0092
- CAAGCGCCATGGACCGGTTTTCCCGGTAATCCGTATTTGTG (site CTAGCGCCTCA) — lower, 0.0166
- CAAGCGCCATGGACCGGTTTTCCCGGTAATCCGTATTTGTG (site GAAGCGCCTCA) — lower, 0.0137
- CAAGCGCCATGGACCGGTTTTCCCGGTAATCCGTATTTGTG (site TAAGCGCCTCA) — lower, 0.0306
- CAAGCGGCATGGACCGGTTTTCCCGGTAATCCGTATTTGCT (site CAAGCAGCTAG) — lower, 0.584
- CAAGCGGCATGGACCGGTTTTCCCGGTAATCCGTATTTGCT (site CAAGCCGCTAG) — lower, 0
- CAAGCGGCATGGACCGGTTTTCCCGGTAATCCGTATTTGCT (site CAAGCGGCTAG) — higher, 1.72
- CAAGCGGCATGGACCGGTTTTCCCGGTAATCCGTATTTGCT (site CAAGCTGCTAG) — lower, 0
- CAAGCTGCATGGACCGGTTTTCCCGGTAATCCGTATTTGGG (site CAAGCTGCTCC) — lower, 0.0432
- CAAGGACCATGGACCGGTTTTCCCGGTAATCCGTATTTGGG (site CAAGGACCTCC) — lower, 0
- CAAGGACCATGGACCGGTTTTCCCGGTAATCCGTATTTGGG (site CCAGGACCTCC) — lower, 0.0136
- CAAGGACCATGGACCGGTTTTCCCGGTAATCCGTATTTGGG (site CGAGGACCTCC) — lower, 0.0074
- CAAGGACCATGGACCGGTTTTCCCGGTAATCCGTATTTGGG (site CTAGGACCTCC) — lower, 0.0255
- CAAGGCACATGGACCGGTTTTCCCGGTAATCCGTATTTGGG (site CAAGACACTCC) — lower, 0.00686
- CAAGGCACATGGACCGGTTTTCCCGGTAATCCGTATTTGGG (site CAAGCCACTCC) — lower, 0.0196
- CAAGGCACATGGACCGGTTTTCCCGGTAATCCGTATTTGGG (site CAAGGCACTCC) — lower, 0.0216
- CAAGGCACATGGACCGGTTTTCCCGGTAATCCGTATTTGGG (site CAAGTCACTCC) — lower, 0.397
- CAAGGCCCATGGACCGGTTTTCCCGGTAATCCGTATTTGTT (site CAAGGCCCTAA) — lower, 0.0195
- CAAGGCCCATGGACCGGTTTTCCCGGTAATCCGTATTTGTT (site CACGGCCCTAA) — lower, 0.0285
- CAAGGCCCATGGACCGGTTTTCCCGGTAATCCGTATTTGTT (site CAGGGCCCTAA) — lower, 0.0144
- CAAGGCCCATGGACCGGTTTTCCCGGTAATCCGTATTTGTT (site CATGGCCCTAA) — lower, 0.0187
- CAAGGCGCATGGACCGGTTTTCCCGGTAATCCGTATTTGGA (site CAAGGCGCTTC) — higher, 1.42
- CAAGGGCCATGGACCGGTTTTCCCGGTAATCCGTATTTGTG (site CAAGAGCCTCA) — lower, 0.431
- CAAGGGCCATGGACCGGTTTTCCCGGTAATCCGTATTTGTG (site CAAGCGCCTCA) — lower, 0.0177
- CAAGGGCCATGGACCGGTTTTCCCGGTAATCCGTATTTGTG (site CAAGGGCCTCA) — lower, 0.314
- CAAGGGCCATGGACCGGTTTTCCCGGTAATCCGTATTTGTG (site CAAGTGCCTCA) — lower, 0.115
- CAAGGGGCATGGACCGGTTTTCCCGGTAATCCGTATTTGTT (site CAAGGGGCTAA) — higher, 2.43
- CAAGGTGCATGGACCGGTTTTCCCGGTAATCCGTATTTGAT (site CAAGGTGCTAT) — higher, 2.52
- CAAGGTGCATGGACCGGTTTTCCCGGTAATCCGTATTTGAT (site CCAGGTGCTAT) — lower, 0.8
- CAAGGTGCATGGACCGGTTTTCCCGGTAATCCGTATTTGAT (site CTAGGTGCTAT) — higher, 1.67
- CAAGTAGCATGGACCGGTTTTCCCGGTAATCCGTATTTGCT (site CAAGAAGCTAG) — lower, 0
- CAAGTAGCATGGACCGGTTTTCCCGGTAATCCGTATTTGCT (site CAAGCAGCTAG) — lower, 0.378
- CAAGTAGCATGGACCGGTTTTCCCGGTAATCCGTATTTGCT (site CAAGGAGCTAG) — lower, 0.0678
- CAAGTAGCATGGACCGGTTTTCCCGGTAATCCGTATTTGCT (site CAAGTAGCTAG) — higher, 1.66
- CAAGTATCATGGACCGGTTTTCCCGGTAATCCGTATTTGAG (site CAAGTATCTCT) — higher, 3.07
- CAAGTATCATGGACCGGTTTTCCCGGTAATCCGTATTTGAG (site CTAGTATCTGT) — lower, 0
- CAAGTCACATGGACCGGTTTTCCCGGTAATCCGTATTTGGA (site CAAGTCACTAC) — lower, 0.358
- CAAGTCACATGGACCGGTTTTCCCGGTAATCCGTATTTGGA (site CAAGTCACTCC) — lower, 0.638
- CAAGTCACATGGACCGGTTTTCCCGGTAATCCGTATTTGGA (site CAAGTCACTGC) — lower, 0.803
- CAAGTCACATGGACCGGTTTTCCCGGTAATCCGTATTTGGA (site CAAGTCACTTC) — higher, 2.03
- CAAGTCACATGGACCGGTTTTCCCGGTAATCCGTATTTGTG (site CAAGTCACTCA) — lower, 0.0199
- CAAGTCACATGGACCGGTTTTCCCGGTAATCCGTATTTGTG (site CAAGTCACTCC) — lower, 0.0385
- CAAGTCACATGGACCGGTTTTCCCGGTAATCCGTATTTGTG (site CAAGTCACTCG) — lower, 0.151
- CAAGTCACATGGACCGGTTTTCCCGGTAATCCGTATTTGTG (site CAAGTCACTCT) — lower, 0.103
- CAAGTCCCATGGACCGGTTTTCCCGGTAATCCGTATTTGGG (site CAAGTCACTCC) — lower, 0.0127
- CAAGTCCCATGGACCGGTTTTCCCGGTAATCCGTATTTGGG (site CAAGTCCCTCC) — lower, 0.00917
- CAAGTCCCATGGACCGGTTTTCCCGGTAATCCGTATTTGGG (site CAAGTCGCTCC) — lower, 0.0161
- CAAGTCCCATGGACCGGTTTTCCCGGTAATCCGTATTTGGG (site CAAGTCTCTCC) — lower, 0.025
- CAAGTGCCATGGACCGGTTTTCCCGGTAATCCGTATTTGTG (site CAAGAGCCTCA) — lower, 0.354
- CAAGTGCCATGGACCGGTTTTCCCGGTAATCCGTATTTGTG (site CAAGCGCCTCA) — lower, 0.389
- CAAGTGCCATGGACCGGTTTTCCCGGTAATCCGTATTTGTG (site CAAGGGCCTCA) — lower, 0.21
- CAAGTGCCATGGACCGGTTTTCCCGGTAATCCGTATTTGTG (site CAAGTGCCTCA) — lower, 0.662
